Patent US20050009005A1, “Methods of using quantitative lipid metabolome data” (Lipomics Technologies, Inc., priority 2001, published 2005)
Read-outs that look alike come from different tables or passages of the source.

Tested on: de novo fatty acid synthesis
[1] = Liver, CE, mean of treated mice
[2] = Liver, FFA, mean of treated mice
[3] = Liver, PC, mean of treated mice
[4] = Liver, PS/I, mean of treated mice
[5] = Liver, TAG, mean of treated mice
[6] = Plasma, CE, mean of treated mice
[7] = Plasma, FFA, mean of treated mice
[8] = Plasma, PC, mean of treated mice
[9] = Plasma, PL, mean of treated mice
[10] = Plasma, TAG, mean of treated mice

CN(CCOc1ccc(CC2SC(=O)NC2=O)cc1)c1ccccn1 (stereo not drawn) [rosiglitazone]
18:0 [1]: 204.4 nanomoles per gram | 18:1n7 [1]: 138.6 nanomoles per gram | 18:1n9 [1]: 1208.0 nanomoles per gram | Saturates [1]: 3147.2 nanomoles per gram | Total n7 [1]: 817.0 nanomoles per gram | Total n9 [1]: 1239.5 nanomoles per gram | Total nMole of [1]: 5830.7 nanomoles per gram | 14:0 (Liver, CL, mean): 0.5 percentage of total fatty acids within each lipid class | 16:0 (Liver, CL, mean): 5.7 percentage of total fatty acids within each lipid class | 16:1n7 (Liver, CL, mean): 6.3 percentage of total fatty acids within each lipid class | 18:0 (Liver, CL, mean): 3.6 percentage of total fatty acids within each lipid class | 18:1n7 (Liver, CL, mean): 5.5 percentage of total fatty acids within each lipid class | 18:1n9 (Liver, CL, mean): 10.0 percentage of total fatty acids within each lipid class | Saturates (Liver, CL, mean): 10.6 percentage of total fatty acids within each lipid class | Total (Liver, CL, mean): 100.0 percentage of total fatty acids within each lipid class | Total n7 (Liver, CL, mean): 11.8 percentage of total fatty acids within each lipid class | Total n9 (Liver, CL, mean): 10.5 percentage of total fatty acids within each lipid class | 14:0 (Liver, FFA, mean): 1.0 percentage of total fatty acids within each lipid class | 16:0 (Liver, FFA, mean): 19.9 percentage of total fatty acids within each lipid class | 16:1n7 (Liver, FFA, mean): 9.4 percentage of total fatty acids within each lipid class | 18:0 (Liver, FFA, mean): 3.0 percentage of total fatty acids within each lipid class | 18:1n7 (Liver, FFA, mean): 6.4 percentage of total fatty acids within each lipid class | 18:1n9 (Liver, FFA, mean): 25.4 percentage of total fatty acids within each lipid class | Saturates (Liver, FFA, mean): 24.4 percentage of total fatty acids within each lipid class | Total (Liver, FFA, mean): 100.0 percentage of total fatty acids within each lipid class | Total n7 (Liver, FFA, mean): 15.8 percentage of total fatty acids within each lipid class | Total n9 (Liver, FFA, mean): 26.0 percentage of total fatty acids within each lipid class | 14:0 [2]: 236.5 nanomoles per gram | 16:0 [2]: 4507.0 nanomoles per gram | 16:1n7 [2]: 2121.2 nanomoles per gram | 18:0 [2]: 691.5 nanomoles per gram | 18:1n7 [2]: 1466.0 nanomoles per gram | 18:1n9 [2]: 5761.2 nanomoles per gram | Saturates [2]: 5541.5 nanomoles per gram | Total n7 [2]: 3587.3 nanomoles per gram | Total n9 [2]: 5909.9 nanomoles per gram | Total nMole of [2]: 22631.3 nanomoles per gram | 14:0 (Liver, PC, mean): 0.2 percentage of total fatty acids within each lipid class | 16:0 (Liver, PC, mean): 33.3 percentage of total fatty acids within each lipid class | 16:1n7 (Liver, PC, mean): 1.7 percentage of total fatty acids within each lipid class | 18:0 (Liver, PC, mean): 10.3 percentage of total fatty acids within each lipid class | 18:1n7 (Liver, PC, mean): 4.6 percentage of total fatty acids within each lipid class | 18:1n9 (Liver, PC, mean): 9.6 percentage of total fatty acids within each lipid class | Saturates (Liver, PC, mean): 44.1 percentage of total fatty acids within each lipid class | Total (Liver, PC, mean): 100.0 percentage of total fatty acids within each lipid class | Total n7 (Liver, PC, mean): 6.4 percentage of total fatty acids within each lipid class | Total n9 (Liver, PC, mean): 10.2 percentage of total fatty acids within each lipid class | 14:0 [3]: 43.2 nanomoles per gram | 16:0 [3]: 9572.4 nanomoles per gram | 16:1n7 [3]: 501.3 nanomoles per gram | 18:0 [3]: 2975.6 nanomoles per gram | 18:1n7 [3]: 1329.1 nanomoles per gram | 18:1n9 [3]: 2767.4 nanomoles per gram | Saturates [3]: 12686.5 nanomoles per gram | Total n7 [3]: 1830.5 nanomoles per gram | Total n9 [3]: 2932.3 nanomoles per gram | Total nMole of [3]: 14390.8 nanomoles per gram | 14:0 (Liver, PS/I, mean): 0.2 percentage of total fatty acids within each lipid class | 16:0 (Liver, PS/I, mean): 11.1 percentage of total fatty acids within each lipid class | 16:1n7 (Liver, PS/I, mean): 0.7 percentage of total fatty acids within each lipid class | 18:0 (Liver, PS/I, mean): 32.3 percentage of total fatty acids within each lipid class | 18:1n7 (Liver, PS/I, mean): 2.9 percentage of total fatty acids within each lipid class | 18:1n9 (Liver, PS/I, mean): 6.7 percentage of total fatty acids within each lipid class | Saturates (Liver, PS/I, mean): 44.2 percentage of total fatty acids within each lipid class | Total (Liver, PS/I, mean): 100.0 percentage of total fatty acids within each lipid class | Total n7 (Liver, PS/I, mean): 3.6 percentage of total fatty acids within each lipid class | Total n9 (Liver, PS/I, mean): 8.2 percentage of total fatty acids within each lipid class | 14:0 [4]: 18.9 nanomoles per gram | 16:0 [4]: 1158.5 nanomoles per gram | 16:1n7 [4]: 76.0 nanomoles per gram | 18:0 [4]: 3348.9 nanomoles per gram | 18:1n7 [4]: 303.2 nanomoles per gram | 18:1n9 [4]: 693.2 nanomoles per gram | Saturates [4]: 4590.1 nanomoles per gram | Total n7 [4]: 379.2 nanomoles per gram | Total n9 [4]: 854.3 nanomoles per gram | Total nMole of [4]: 5196.5 nanomoles per gram | 14:0 (Liver, TAG, mean): 0.5 percentage of total fatty acids within each lipid class | 16:0 (Liver, TAG, mean): 27.1 percentage of total fatty acids within each lipid class | 16:1n7 (Liver, TAG, mean): 8.1 percentage of total fatty acids within each lipid class | 18:0 (Liver, TAG, mean): 0.6 percentage of total fatty acids within each lipid class | 18:1n7 (Liver, TAG, mean): 5.8 percentage of total fatty acids within each lipid class | 18:1n9 (Liver, TAG, mean): 39.6 percentage of total fatty acids within each lipid class | Saturates (Liver, TAG, mean): 28.6 percentage of total fatty acids within each lipid class | Total (Liver, TAG, mean): 100.0 percentage of total fatty acids within each lipid class | Total n7 (Liver, TAG, mean): 13.9 percentage of total fatty acids within each lipid class | Total n9 (Liver, TAG, mean): 40.5 percentage of total fatty acids within each lipid class | 14:0 [5]: 2450.8 nanomoles per gram | 16:0 [5]: 122013.9 nanomoles per gram | 16:1n7 [5]: 36411.0 nanomoles per gram | 18:0 [5]: 2665.4 nanomoles per gram | 18:1n7 [5]: 26279.6 nanomoles per gram | 18:1n9 [5]: 179035.8 nanomoles per gram | Saturates [5]: 129102.3 nanomoles per gram | Total n7 [5]: 62690.6 nanomoles per gram | Total n9 [5]: 183105.4 nanomoles per gram | Total nMole of [5]: 150412.8 nanomoles per gram | 14:0 (Plasma, CE, mean): 0.6 percentage of total fatty acids within each lipid class | 16:0 (Plasma, CE, mean): 3.7 percentage of total fatty acids within each lipid class | 16:1n7 (Plasma, CE, mean): 6.5 percentage of total fatty acids within each lipid class | 18:0 (Plasma, CE, mean): 0.2 percentage of total fatty acids within each lipid class | 18:1n7 (Plasma, CE, mean): 0.7 percentage of total fatty acids within each lipid class | 18:1n9 (Plasma, CE, mean): 6.1 percentage of total fatty acids within each lipid class | Saturates (Plasma, CE, mean): 4.9 percentage of total fatty acids within each lipid class | Total (Plasma, CE, mean): 100.0 percentage of total fatty acids within each lipid class | Total n7 (Plasma, CE, mean): 7.3 percentage of total fatty acids within each lipid class | Total n9 (Plasma, CE, mean): 6.6 percentage of total fatty acids within each lipid class | 14:0 [6]: 16.8 nanomoles per gram | 16:0 [6]: 113.0 nanomoles per gram | 16:1n7 [6]: 200.8 nanomoles per gram | 18:0 [6]: 7.1 nanomoles per gram | 18:1n7 [6]: 22.7 nanomoles per gram | 18:1n9 [6]: 189.1 nanomoles per gram | Saturates [6]: 148.8 nanomoles per gram | Total n7 [6]: 223.4 nanomoles per gram | Total n9 [6]: 202.2 nanomoles per gram | Total nMole of [6]: 3058.7 nanomoles per gram | 14:0 (Plasma, FFA, mean): 3.3 percentage of total fatty acids within each lipid class | 16:0 (Plasma, FFA, mean): 30.9 percentage of total fatty acids within each lipid class | 16:1n7 (Plasma, FFA, mean): 8.3 percentage of total fatty acids within each lipid class | 18:0 (Plasma, FFA, mean): 8.1 percentage of total fatty acids within each lipid class | 18:1n7 (Plasma, FFA, mean): 3.2 percentage of total fatty acids within each lipid class | 18:1n9 (Plasma, FFA, mean): 18.4 percentage of total fatty acids within each lipid class | Saturates (Plasma, FFA, mean): 43.8 percentage of total fatty acids within each lipid class | Total (Plasma, FFA, mean): 100.0 percentage of total fatty acids within each lipid class | Total n9 (Plasma, FFA, mean): 18.9 percentage of total fatty acids within each lipid class | 14:0 [7]: 15.9 nanomoles per gram | 16:0 [7]: 148.4 nanomoles per gram | 16:1n7 [7]: 41.4 nanomoles per gram | 18:0 [7]: 37.3 nanomoles per gram | 18:1n7 [7]: 15.2 nanomoles per gram | 18:1n9 [7]: 90.2 nanomoles per gram | Saturates [7]: 208.8 nanomoles per gram | Total n7 [7]: 56.7 nanomoles per gram | Total n9 [7]: 92.7 nanomoles per gram | Total nMole of [7]: 478.4 nanomoles per gram | 14:0 (Plasma, PC, mean): 0.1 percentage of total fatty acids within each lipid class | 16:0 (Plasma, PC, mean): 30.8 percentage of total fatty acids within each lipid class | 16:1n7 (Plasma, PC, mean): 0.8 percentage of total fatty acids within each lipid class | 18:0 (Plasma, PC, mean): 13.0 percentage of total fatty acids within each lipid class | 18:1n7 (Plasma, PC, mean): 4.1 percentage of total fatty acids within each lipid class | 18:1n9 (Plasma, PC, mean): 9.4 percentage of total fatty acids within each lipid class | Saturates (Plasma, PC, mean): 44.6 percentage of total fatty acids within each lipid class | Total (Plasma, PC, mean): 100.0 percentage of total fatty acids within each lipid class | Total n7 (Plasma, PC, mean): 4.9 percentage of total fatty acids within each lipid class | Total n9 (Plasma, PC, mean): 9.9 percentage of total fatty acids within each lipid class | 14:0 [8]: 5.7 nanomoles per gram | 16:0 [8]: 1246.9 nanomoles per gram | 16:1n7 [8]: 34.2 nanomoles per gram | 18:0 [8]: 528.9 nanomoles per gram | 18:1n7 [8]: 164.8 nanomoles per gram | 18:1n9 [8]: 383.4 nanomoles per gram | Saturates [8]: 1804.9 nanomoles per gram | Total n7 [8]: 199.0 nanomoles per gram | Total n9 [8]: 405.1 nanomoles per gram | Total nMole of [8]: 2027.9 nanomoles per gram | 14:0 (Plasma, PL, mean): 0.2 percentage of total fatty acids within each lipid class | 16:0 (Plasma, PL, mean): 30.9 percentage of total fatty acids within each lipid class | 16:1n7 (Plasma, PL, mean): 0.9 percentage of total fatty acids within each lipid class | 18:0 (Plasma, PL, mean): 11.9 percentage of total fatty acids within each lipid class | 18:1n7 (Plasma, PL, mean): 3.9 percentage of total fatty acids within each lipid class | 18:1n9 (Plasma, PL, mean): 7.4 percentage of total fatty acids within each lipid class | Saturates (Plasma, PL, mean): 43.9 percentage of total fatty acids within each lipid class | Total (Plasma, PL, mean): 100.0 percentage of total fatty acids within each lipid class | Total n7 (Plasma, PL, mean): 4.8 percentage of total fatty acids within each lipid class | Total n9 (Plasma, PL, mean): 8.7 percentage of total fatty acids within each lipid class | 14:0 [9]: 7.7 nanomoles per gram | 16:0 [9]: 1533.6 nanomoles per gram | 16:1n7 [9]: 43.0 nanomoles per gram | 18:0 [9]: 604.7 nanomoles per gram | 18:1n7 [9]: 195.0 nanomoles per gram | 18:1n9 [9]: 384.8 nanomoles per gram | Saturates [9]: 2191.4 nanomoles per gram | Total n7 [9]: 238.0 nanomoles per gram | Total n9 [9]: 449.9 nanomoles per gram | Total nMole of [9]: 2496.5 nanomoles per gram | 14:0 (Plasma, TAG, mean): 1.2 percentage of total fatty acids within each lipid class | 16:0 (Plasma, TAG, mean): 21.9 percentage of total fatty acids within each lipid class | 16:1n7 (Plasma, TAG, mean): 7.0 percentage of total fatty acids within each lipid class | 18:0 (Plasma, TAG, mean): 1.8 percentage of total fatty acids within each lipid class | 18:1n7 (Plasma, TAG, mean): 4.5 percentage of total fatty acids within each lipid class | 18:1n9 (Plasma, TAG, mean): 27.2 percentage of total fatty acids within each lipid class | Saturates (Plasma, TAG, mean): 25.8 percentage of total fatty acids within each lipid class | Total (Plasma, TAG, mean): 100.0 percentage of total fatty acids within each lipid class | Total n9 (Plasma, TAG, mean): 27.9 percentage of total fatty acids within each lipid class | 14:0 [10]: 17.1 nanomoles per gram | 16:0 [10]: 315.8 nanomoles per gram | 16:1n7 [10]: 102.5 nanomoles per gram | 18:0 [10]: 24.9 nanomoles per gram | 18:1n7 [10]: 66.1 nanomoles per gram | 18:1n9 [10]: 398.8 nanomoles per gram | Saturates [10]: 368.7 nanomoles per gram | Total n7 [10]: 168.5 nanomoles per gram | Total n9 [10]: 410.2 nanomoles per gram | Total nMole of [10]: 484.3 nanomoles per gram
